What was measured:
Format in all cases: in vivo
paddy rice [1] = assay: Experiment 1 flooded soil treatment: injury to paddy rice; conditions: 4 weeks after treatment
Source text: (§1) Paddy soil (clay loam) was put into a pot so as to have a surface area of 1/15500 ares. Uniformly mixed seeds of several kinds of weeds, viz., nobie (barnyardgrass, Echinochloa spp.), broad-leaved weeds, hotarui (bulrush, Scirpus juncoides) and tamagayatsuri (small-flowered umbrellaplant, Cyperus difformis), were sown in the surface layer of the soil in each pot, and then paddy rice seedlings at the two- or three-leaved stage were transplanted into each pot to a depth of 2 cm, and water was fed into each pot so as to provide a 3 cm deep water layer on the soil surface. After 3 days, in other words at the initial stage of germination of nobie (barnyardgrass, Echinochloa spp.), a predetermined amount of a selected compound obtained in a manner analogous to Example 8 in the form of diluted aqueous solution was dropped into the water layer in each pot. After that, the pots were kept in a glass chamber to allow the paddy rice and the weeds to grow, and after the lapse of 4 weeks from the treatment with the selected compounds, the herbicidal effects and the degree of injury to the paddy rice were evaluated. In the table, the herbicidal effects and the degree of injury to the paddy rice are indicated by numerical values, which have the following meaning.
(§2) 0: not injured (normally grown)

[2] = tested on: nobie (barnyardgrass, Echinochloa spp.); assay: Experiment 1 flooded soil treatment: nobie; parameters: key: 5: completely killed; 4: seriously injured; 3: considerably injured; 2: somewhat injured; 1: slightly injured; 0: not injured (normally grown); conditions: 4 weeks after treatment
Source text: as §1, §2

broad-leaved weeds [3] = assay: Experiment 1 flooded soil treatment: broad-leaved weeds; parameters: key: 5: completely killed; 4: seriously injured; 3: considerably injured; 2: somewhat injured; 1: slightly injured; 0: not injured (normally grown); conditions: 4 weeks after treatment
Source text: as §1, §2

[4] = tested on: hotarui (bulrush, Scirpus juncoides); assay: Experiment 1 flooded soil treatment: hotarui; parameters: key: 5: completely killed; 4: seriously injured; 3: considerably injured; 2: somewhat injured; 1: slightly injured; 0: not injured (normally grown); conditions: 4 weeks after treatment
Source text: as §1, §2

[5] = tested on: tamagayatsuri (small-flowered umbrellaplant, Cyperus difformis); assay: Experiment 1 flooded soil treatment: tamagayatsuri; parameters: key: 5: completely killed; 4: seriously injured; 3: considerably injured; 2: somewhat injured; 1: slightly injured; 0: not injured (normally grown); conditions: 4 weeks after treatment
Source text: as §1, §2

rice [6] = assay: Experiment 2 foliage treatment: rice; parameters: key: 5: completely killed; 4: seriously injured; 3: considerably injured; 2: somewhat injured; 1: slightly injured; 0: not injured (normally grown); conditions: 4 weeks after treatment
Summary of the method: (§3)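 Herbicidal damage is rated 4 weeks after spraying, by the scoring used in Experiment 1. Treatment is a foliar application of a wettable-powder suspension to two- or three-leaved seedlings grown in potted cultivated soil and kept in a glass chamber.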

[7] = tested on: cockspur (Panicum crus-galli); assay: Experiment 2 foliage treatment: cockspur; parameters: key: 5: completely killed; 4: seriously injured; 3: considerably injured; 2: somewhat injured; 1: slightly injured; 0: not injured (normally grown); conditions: 4 weeks after treatment
Summary of the method: as §3

garden radish [8] = assay: Experiment 2 foliage treatment: garden radish; parameters: key: 5: completely killed; 4: seriously injured; 3: considerably injured; 2: somewhat injured; 1: slightly injured; 0: not injured (normally grown); conditions: 4 weeks after treatment
Summary of the method: as §3

[9] = tested on: aobiyu (slender amaranth, Amaranthus viridis); assay: Experiment 2 foliage treatment: aobiyu; parameters: key: 5: completely killed; 4: seriously injured; 3: considerably injured; 2: somewhat injured; 1: slightly injured; 0: not injured (normally grown); conditions: 4 weeks after treatment
Summary of the method: as §3

[10] = tested on: mehishiba (henry crabgrass, Digitaria cliaris); assay: Experiment 2 foliage treatment: mehishiba; parameters: key: 5: completely killed; 4: seriously injured; 3: considerably injured; 2: somewhat injured; 1: slightly injured; 0: not injured (normally grown); conditions: 4 weeks after treatment
Summary of the method: as §3

[11] = tested on: ichibi (velvetleaf, Abutilon theophrasti); assay: Experiment 3 foliage treatment: ichibi; parameters: key: 5: completely killed; 4: seriously injured; 3: considerably injured; 2: somewhat injured; 1: slightly injured; 0: not injured (normally grown); conditions: 4 weeks after treatment
Description: (§4) Upon seedling stage (two- or three-leaved stage) of ichibi (velvetleaf, Abutilon theophrasti), onamomi (heartleaf cocklebur, Xanthium strumarium) (4L stage), noasagao (blue morningglory, Ipomoea indica) and ooinutade (pale smartweed, Persicaria lapathifolia) which were grown on a cultivated soil put in pots of 1/8850 ares, a selected compound obtained in a manner analogous to Example 8, in suspended wettable powder, was sprayed to each plant. After that, the pots were kept in a glass chamber to allow each plant to grow, and after the lapse of 4 weeks from the treatment with the selected compounds the herbicidal effects were evaluated. The evaluation of the herbicidal effects was similarly conducted as to that of Experiment 1.

[12] = tested on: onamomi (heartleaf cocklebur, Xanthium strumarium); assay: Experiment 3 foliage treatment: onamomi; parameters: key: 5: completely killed; 4: seriously injured; 3: considerably injured; 2: somewhat injured; 1: slightly injured; 0: not injured (normally grown); conditions: 4 weeks after treatment
Description: as §4

[13] = tested on: noasagao (blue morningglory, Ipomoea indica); assay: Experiment 3 foliage treatment: noasagao; parameters: key: 5: completely killed; 4: seriously injured; 3: considerably injured; 2: somewhat injured; 1: slightly injured; 0: not injured (normally grown); conditions: 4 weeks after treatment
Description: as §4

[14] = tested on: ooinutade (pale smartweed, Persicaria lapathifolia); assay: Experiment 3 foliage treatment: ooinutade; parameters: key: 5: completely killed; 4: seriously injured; 3: considerably injured; 2: somewhat injured; 1: slightly injured; 0: not injured (normally grown); conditions: 4 weeks after treatment
Description: as §4

paddy rice [15] = assay: Experiment 4 flooded soil treatment: injury to paddy rice; conditions: 4 weeks after treatment
Source text: (§5) Paddy soil (clay loam) was put into a pot so as to have a surface area of 1/15500 ares. Uniformly mixed seeds of several kinds of weeds, viz., nobie (barnyardgrass, Echinochloa spp.), broad-leaved weeds, hotarui (bulrush, Scirpus juncoides) and tamagayatsuri (small-flowered umbrellaplant, Cyperus difformis), were sown in the surface layer of the soil in each pot, and then paddy rice seedlings at the two- or three-leaved stage were transplanted into each pot to a depth of 2 cm, and water was fed into each pot so as to provide a 3 cm deep water layer on the soil surface. After 3 days, in other words at the initial stage of germination of nobie (barnyardgrass, Echinochloa spp.), a predetermined amount of a selected compound obtained in a manner analogous to Example 11 in the form of diluted aqueous solution was dropped into the water layer in each pot. After that, the pots were kept in a glass chamber to allow the paddy rice and the weeds to grow, and after the lapse of 4 weeks from the treatment with the selected compounds, the herbicidal effects and the degree of injury to the paddy rice were evaluated. The evaluation of the herbicidal effects was similarly conducted as to that of Experiment 1.

[16] = tested on: nobie (barnyardgrass, Echinochloa spp.); assay: Experiment 4 flooded soil treatment: nobie; parameters: key: 5: completely killed; 4: seriously injured; 3: considerably injured; 2: somewhat injured; 1: slightly injured; 0: not injured (normally grown); conditions: 4 weeks after treatment
Source text: as §5

broad-leaved weeds [17] = assay: Experiment 4 flooded soil treatment: broad-leaved weeds; parameters: key: 5: completely killed; 4: seriously injured; 3: considerably injured; 2: somewhat injured; 1: slightly injured; 0: not injured (normally grown); conditions: 4 weeks after treatment
Source text: as §5

[18] = tested on: hotarui (bulrush, Scirpus juncoides); assay: Experiment 4 flooded soil treatment: hotarui; conditions: 4 weeks after treatment
Source text: as §5

[19] = tested on: tamagayatsuri (small-flowered umbrellaplant, Cyperus difformis); assay: Experiment 4 flooded soil treatment: tamagayatsuri; parameters: key: 5: completely killed; 4: seriously injured; 3: considerably injured; 2: somewhat injured; 1: slightly injured; 0: not injured (normally grown); conditions: 4 weeks after treatment
Source text: as §5

rice [20] = assay: Experiment 5 foliage treatment: rice; parameters: key: 5: completely killed; 4: seriously injured; 3: considerably injured; 2: somewhat injured; 1: slightly injured; 0: not injured (normally grown); conditions: foliage spray of wettable powder suspension, evaluated 4 weeks after treatment
Summary of the method: (§6)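 Compounds sprayed as wettable powder suspension onto pot-grown plants at the two- to three-leaf stage. Plants kept in a glasshouse and herbicidal effect scored 4 weeks after treatment.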

[21] = tested on: cockspur (Panicum crus-galli); assay: Experiment 5 foliage treatment: cockspur; parameters: key: 5: completely killed; 4: seriously injured; 3: considerably injured; 2: somewhat injured; 1: slightly injured; 0: not injured (normally grown); conditions: foliage spray of wettable powder suspension, evaluated 4 weeks after treatment
Summary of the method: as §6

garden radish [22] = assay: Experiment 5 foliage treatment: garden radish; parameters: key: 5: completely killed; 4: seriously injured; 3: considerably injured; 2: somewhat injured; 1: slightly injured; 0: not injured (normally grown); conditions: foliage spray of wettable powder suspension, evaluated 4 weeks after treatment
Summary of the method: as §6

[23] = tested on: aobiyu (slender amaranth, Amaranthus viridis); assay: Experiment 5 foliage treatment: aobiyu; parameters: key: 5: completely killed; 4: seriously injured; 3: considerably injured; 2: somewhat injured; 1: slightly injured; 0: not injured (normally grown); conditions: foliage spray of wettable powder suspension, evaluated 4 weeks after treatment
Summary of the method: as §6

[24] = tested on: mehishiba (henry crabgrass, Digitaria cliaris); assay: Experiment 5 foliage treatment: mehishiba; parameters: key: 5: completely killed; 4: seriously injured; 3: considerably injured; 2: somewhat injured; 1: slightly injured; 0: not injured (normally grown); conditions: foliage spray of wettable powder suspension, evaluated 4 weeks after treatment
Summary of the method: as §6

[25] = tested on: ichibi (velvetleaf, Abutilon theophrasti); assay: Experiment 6 foliage treatment: ichibi; parameters: key: 5: completely killed; 4: seriously injured; 3: considerably injured; 2: somewhat injured; 1: slightly injured; 0: not injured (normally grown); conditions: foliage spray of wettable powder suspension, evaluated 4 weeks after treatment
Description: as §4, with “(4 L” for “(4L”, “11,” for “8,”, “as” for “as to”

[26] = tested on: onamomi (heartleaf cocklebur, Xanthium strumarium); assay: Experiment 6 foliage treatment: onamomi; parameters: key: 5: completely killed; 4: seriously injured; 3: considerably injured; 2: somewhat injured; 1: slightly injured; 0: not injured (normally grown); conditions: foliage spray of wettable powder suspension, evaluated 4 weeks after treatment
Description: as §4, with “(4 L” for “(4L”, “11,” for “8,”, “as” for “as to”

[27] = tested on: noasagao (blue morningglory, Ipomoea indica); assay: Experiment 6 foliage treatment: noasagao; parameters: key: 5: completely killed; 4: seriously injured; 3: considerably injured; 2: somewhat injured; 1: slightly injured; 0: not injured (normally grown); conditions: foliage spray of wettable powder suspension, evaluated 4 weeks after treatment
Description: as §4, with “(4 L” for “(4L”, “11,” for “8,”, “as” for “as to”

[28] = tested on: ooinutade (pale smartweed, Persicaria lapathifolia); assay: Experiment 6 foliage treatment: ooinutade; parameters: key: 5: completely killed; 4: seriously injured; 3: considerably injured; 2: somewhat injured; 1: slightly injured; 0: not injured (normally grown); conditions: foliage spray of wettable powder suspension, evaluated 4 weeks after treatment
Description: as §4, with “(4 L” for “(4L”, “11,” for “8,”, “as” for “as to”

COC(=O)C1=C(C(=O)N(C(C)=O)c2cc(SC(C)C(=O)OC)c(Cl)cc2F)CCCC1 (centres unmarked) [compound 20, N-acetyl-N-[4-chloro-2-fluoro-5-(1-methoxycarbonylethylthio)phenyl]-3,4,5,6-tetrahydrophthalamic acid methyl ester]
4: Herbicidal Effect onamomi ([12]; 4 g/10a) | Herbicidal Effect onamomi ([12]; 8 g/10a) | Herbicidal Effect noasagao ([13]; 4 g/10a)
0.5: Injury of Paddy (paddy rice [1]; 12.5 g/10a) | Injury of Paddy (paddy rice [1]; 25 g/10a)
2: Herbicidal Effect cockspur ([7]; 40 g/10a) | Herbicidal Effect cockspur ([7]; 80 g/10a)
1: Herbicidal Effect rice (rice [6]; 40 g/10a) | Herbicidal Effect rice (rice [6]; 80 g/10a) | Herbicidal Effect mehishiba ([10]; 40 g/10a) | Herbicidal Effect mehishiba ([10]; 80 g/10a)
5: Herbicidal Effect nobie ([2]; 12.5 g/10a) | Herbicidal Effect nobie ([2]; 25 g/10a) | Herbicidal Effect broad-leaved weed (broad-leaved weeds [3]; 12.5 g/10a) | Herbicidal Effect broad-leaved weed (broad-leaved weeds [3]; 25 g/10a) | Herbicidal Effect hotarui ([4]; 12.5 g/10a) | Herbicidal Effect hotarui ([4]; 25 g/10a) | Herbicidal Effect tamagayatsuri ([5]; 12.5 g/10a) | Herbicidal Effect tamagayatsuri ([5]; 25 g/10a) | Herbicidal Effect garden radish (garden radish [8]; 40 g/10a) | Herbicidal Effect garden radish (garden radish [8]; 80 g/10a) | Herbicidal Effect aobiyu ([9]; 40 g/10a) | Herbicidal Effect aobiyu ([9]; 80 g/10a) | Herbicidal Effect ichibi ([11]; 4 g/10a) | Herbicidal Effect ichibi ([11]; 8 g/10a) | Herbicidal Effect noasagao ([13]; 8 g/10a) | Herbicidal Effect ooinutade ([14]; 4 g/10a) | Herbicidal Effect ooinutade ([14]; 8 g/10a)

C#CC(C)Oc1cc(N(C(=O)C2=C(C(=O)OCCOCC)CCCC2)C(=O)c2cccnc2)c(F)cc1Cl (centres unmarked) [compound 60]
5: Herbicidal Effect nobie ([16]; 3.13 g/10a) | Herbicidal Effect nobie ([16]; 6.25 g/10a) | Herbicidal Effect broad-leaved weed (broad-leaved weeds [17]; 3.13 g/10a) | Herbicidal Effect broad-leaved weed (broad-leaved weeds [17]; 6.25 g/10a) | Herbicidal Effect tamagayatsuri ([19]; 3.13 g/10a) | Herbicidal Effect tamagayatsuri ([19]; 6.25 g/10a) | Herbicidal Effect garden radish (garden radish [22]; 40 g/10a) | Herbicidal Effect garden radish (garden radish [22]; 80 g/10a) | Herbicidal Effect aobiyu ([23]; 40 g/10a) | Herbicidal Effect aobiyu ([23]; 80 g/10a) | Herbicidal Effect mehishiba ([24]; 80 g/10a) | Herbicidal Effect ichibi ([25]; 4 g/10a) | Herbicidal Effect ichibi ([25]; 8 g/10a) | Herbicidal Effect onamomi ([26]; 4 g/10a) | Herbicidal Effect onamomi ([26]; 8 g/10a) | Herbicidal Effect noasagao ([27]; 4 g/10a) | Herbicidal Effect noasagao ([27]; 8 g/10a) | Herbicidal Effect ooinutade ([28]; 4 g/10a) | Herbicidal Effect ooinutade ([28]; 8 g/10a)
0.5: Injury of Paddy (paddy rice [15]; 3.13 g/10a) | Injury of Paddy (paddy rice [15]; 6.25 g/10a)
2: Herbicidal Effect rice (rice [20]; 40 g/10a)
4: Herbicidal Effect rice (rice [20]; 80 g/10a) | Herbicidal Effect mehishiba ([24]; 40 g/10a)
1: Herbicidal Effect cockspur ([21]; 40 g/10a) | Herbicidal Effect cockspur ([21]; 80 g/10a)
4.5: Herbicidal Effect hotarui ([18]; 3.13 g/10a) | Herbicidal Effect hotarui ([18]; 6.25 g/10a)

Reference: patent US6337417B1, “N-phenyltetrahydrophthalamic acid derivatives, methods of producing same, and herbicides containing same as effective components” (Central Glass Co., Ltd., priority 1994, dated 2002)
